Reference: publication PMC8952208, “Synthesis, Antiplasmodial, and Antileukemia Activity of Dihydroartemisinin–HDAC Inhibitor Hybrids as Multitarget Drugs” (Pharmaceuticals, 2022)
“Also recorded” adds a separate entry of the source.

Legend:
[1] = test system: five leukemia cell lines (K562, HL60, NALM6, HPBALL, MOLM13); assay: CellTiter-Glo cell viability assay, panel of five leukemia cell lines; assay type: cell-based, human; conditions: for antiproliferative activity compared to DHA: number of the five leukemia cell lines in which DHA is exceeded
Experimental: (§1) Healthy individually-derived fibroblasts were cultured in DMEM supplemented with 10% FCS. Regular cell line authentication was performed short tandem repeat (STR) analysis (DNA fingerprinting), followed by comparison with the original DSMZ cell line database.
(§2) Cell viability assay was performed with leukemic cell lines after 72 h incubation with the respective inhibitors using ATP-based CellTiter-Glo luminescent assay (Promega, Madison, WI, USA).

A2780 cells = assay: MTT cell viability assay; assay type: cell-based; conditions: Homo sapiens, 72 h, n ≥ 3 in triplicate, mean ± SD
Experimental: Reagents were obtained from PAN Biotech, Aidenbach Germany. The cell line was cultured at 37 °C under humidified air with 5% CO2 to a confluence of 80–90% before being used for further assays.
Intrinsic cytotoxicity of test compounds was determined by an MTT assay as previously described. A2780 cells were seeded in 96-well plates (Starlab GmbH, Hamburg, Germany) at a density of 20,000 cells/well and allowed to attach for 12 h. Cells were then treated with increasing concentrations of the test compounds. After 72 h, MTT (3-(4,5-dimethylthiazol-2-yl)-2,5-diphenyltetrazolium bromide) (BioChemica, Applichem GmbH, Darmstadt, Germany) solution (5 mg/mL in phosphate-buffered saline) was added to determine cell survival. The formazan dye was dissolved in DMSO (Sigma-Aldrich, Darmstadt, Germany) after 1 h. Absorbance was measured at 570 nm and 690 nm in a Multiskan microplate photometer (Thermo Fisher Scientific, Waltham, MA, USA). Concentration-response curves were generated using the four-parameter logistic equation (GraphPad Prism 9.0, San Diego, USA), and mean IC50 values were calculated in triplicates based on at least three different experiments.

[2] = test system: artemisinin-resistant P. falciparum Dd2 R539T; assay: Ring-stage survival assay (0–3 h), Dd2 R539T; assay type: cell-based; conditions: 700 nM, 6 h pulse; relative to DMSO control; compared with DHA
Experimental: (§3) The effect of DHA–HDACi hybrids on artemisinin-resistant asexual stages of P. falciparum was assessed using the ring-stage survival assay as previously described with minor modifications. Briefly, mature schizonts of the artemisinin-sensitive strain Dd2 and the partial artemisinin-resistant strain Dd2 R539Twere isolated using magnetic column separation. The schizonts were then put with 10 mL complete medium and 200 µL 0^+ erythrocytes in a T-25 cell culture flask and incubated for exactly 3 h (37 °C, 5% O2, and 5% CO2). Next, parasites were synchronized with 5% (w/v) D-sorbitol solution yielding a culture containing only newly-invaded (0–3 h) ring-stage parasites.
(§4) Ring-stage parasites were added at 2% hematocrit and 0.5% parasitemia to a 48-well plate precoated with complete medium containing either DHA (Sigma-Aldrich) (positive control) or the tested DHA–HDACi hybrids at a final concentration of 700 nM or DMSO (negative control). […] Parasitemia was assessed by Giemsa-stained thin blood smears by two independent readers (10,000 erythrocytes per slide). If the results were discordant by more than 50%, a third independent read was conducted. The survival was calculated as the percentage of treated versus the untreated controls (DMSO). […] Means and standard deviations were calculated using Microsoft Excel. […]

NALM6 cells = assay: CellTiter-Glo cell viability assay, NALM6; assay type: cell-based, human; conditions: for IC50: Homo sapiens, NALM-6, B-ALL, 72 h, CellTiter-Glo, n = 3; for Selectivity index range healthy fibroblasts vs NALM6: SI = (healthy fibroblast IC50)/(leukemia cell line IC50), range over two fibroblasts
Experimental: as §1, §2

Healthy Fibroblast 1 = assay: Cytotoxicity against healthy fibroblast 1; assay type: cell-based; conditions: Homo sapiens, healthy individually-derived fibroblasts
Experimental: as §1, §2

K562 cells = assay: CellTiter-Glo cell viability assay, K562; assay type: cell-based, human; conditions: for IC50: Homo sapiens, K562, CML, 72 h, CellTiter-Glo, n = 3; for Selectivity index range healthy fibroblasts vs K562: SI = (healthy fibroblast IC50)/(leukemia cell line IC50), range over two fibroblasts
Experimental: as §1, §2

[3] = test system: acetylation of α-tubulin (marker of HDAC6 inhibition); assay: Immunoblotting, acetyl-α-tubulin in K562 cells; assay type: cell-based, human; conditions: 0.4 µM, 24 h
Experimental: (§5) K562 cells were treated with the indicated concentration of the compounds or vehicle control (DMSO) for 24 h. The recovered cell pellets were lysed with RIPA buffer (50 mM Tris-HCl pH 8.0, 1% Triton X-100, 0.5% sodium deoxycholate, 0.1% SDS, 150 mM sodium chloride, and 2 mM EDTA), supplemented with protease and phosphatase inhibitors (Thermofischer Scientific, Waltham, MA, USA). An equal amount of total protein (20 µg) was resolved by SDS-PAGE and followed by transfer on nitrocellulose membrane (Sigma-Aldrich). PageRuler prestained protein ladder, 10 kDa to 180 kDa (Thermofisher Scientific, Waltham, MA, USA) was used as a protein molecular weight marker.

[4] = test system: acetylation of histone H3 (marker of HDAC1 inhibition); assay: Immunoblotting, acetyl-histone H3 in K562 cells; assay type: cell-based, human; conditions: 0.4 µM, 24 h
Experimental: as §5

[5] = test system: artemisinin-sensitive P. falciparum Dd2; assay: Ring-stage survival assay (0–3 h), Dd2; assay type: cell-based; conditions: 700 nM, 6 h pulse; relative to DMSO control
Experimental: as §3, §4

SMILES | antiproliferative activity compared to DHA [1] | IC50 (A2780 cells) [µM] | survival of artemisinin-resistant Dd2 R539T parasites in ring-stage survival assay [2] | IC50 (NALM6 cells) [µM] | Selectivity index range healthy fibroblasts vs NALM6 (NALM6 cells) | IC50 (Healthy Fibroblast 1) [µM] | IC50 (K562 cells) [µM] | Selectivity index range healthy fibroblasts vs K562 (K562 cells) | acetylation of α-tubulin (immunoblot) [3] | acetylation of histone H3 (immunoblot) [4] | IC50 ([1]; Homo sapiens, range over K562, HL60, NALM6, HPBALL, MOLM13, read-out: IC50 values across the five leukemia cell lines) [µM] | selectivity indices (SI) fibroblasts over leukemia cells, highest ([1]; highest SI across leukemia cell lines and fibroblasts) | survival of artemisinin-sensitive Dd2 parasites in ring-stage survival assay [5] [%]
C[C@H]1[C@@H](SCc2ccc(C(=O)NO)cc2)O[C@@H]2O[C@@]3(C)CC[C@H]4[C@H](C)CC[C@@H]1[C@@]24OO3 [(α)-7c, N-Hydroxy-4-((((3R,5aS,6R,8aS,9R,10R,12S,12aR)-3,6,9-trimethyldecahydro-12H-3,12-epoxy[1,2]dioxepino[4,3-i]isochromen-10-yl)thio)methyl)benzamide] | all five cell lines | 1.1 ± 0.25 | significantly more active than DHA alone; also recorded: lowest survival | 0.28 ± 0.05 | 27-45 | 12.69 ± 0.12 | 0.62 ± 0.06 | 12-21 | – | – | – | – | –
C[C@H]1[C@H](SCc2ccc(C(=O)NO)cc2)O[C@@H]2O[C@@]3(C)CC[C@H]4[C@H](C)CC[C@@H]1[C@@]24OO3 [(β)-7c, N-Hydroxy-4-((((3R,5aS,6R,8aS,9R,10S,12S,12aR)-3,6,9-trimethyldecahydro-12H-3,12-epoxy[1,2]dioxepino[4,3-i]isochromen-10-yl)thio)methyl)benzamide] | outperforming DHA in four out of five | 0.88 ± 0.13 | – | 0.25 ± 0.01 | 59-71 | 14.7 ± 3.42 | 0.41 ± 0.11 | 36-43 | induced acetylation of α-tubulin | did not induce acetylation of histone H3 | – | – | –
C[C@@H]1CC[C@H]2[C@@H](C)C(OCc3ccc(/C=C/C(=O)NO)cc3)O[C@@H]3O[C@@]4(C)CC[C@@H]1[C@]32OO4 (stereo partly drawn) [Compound 7a, (E)-N-Hydroxy-3-(4-((((3R,5aS,6R,8aS,9R,12R,12aR)-3,6,9-trimethyldecahydro-12H-3,12-epoxy[1,2]dioxepino[4,3-i]isochromen-10-yl)oxy)methyl)phenyl)acrylamide] | all five cell lines | 1.95 ± 0.52 | – | 0.15 ± 0.01 | 42-87 | 13.1 ± 0.1 | 0.31 ± 0.06 | 21-42 | – | – | 0.15 to 1.36 | up to 87 | –
C[C@H]1[C@@H](O)O[C@@H]2O[C@@]3(C)CC[C@H]4[C@H](C)CC[C@@H]1[C@@]24OO3 [DHA, dihydroartemisinin] | – | 0.97 ± 0.07 | – | 2.5 ± 0.16 | – | > 25 | 2.4 ± 0.66 | – | affected the acetylation level neither of α-tubulin nor of histone H3 | affected the acetylation level neither of α-tubulin nor of histone H3 | – | – | ≤ 0.25
